Measured values: publication PMC9377102, “Toxicity and toxicokinetics of the ethanol extract of Zuojin formula” (BMC Complementary Medicine and Therapies, 2022)
Like-named read-outs stand apart in the source and are kept apart here.

Assay: Toxicokinetics test in the satellite groups (UPLC-MS/MS of rat plasma)
Assay type: in vivo
Conditions: for AUC(0-t) / Cmax / Tmax / half-life: SD, rat, plasma, po; for half-life: read-out: T1/2 mean (converted)
Experimental: SD rats (5 ~ 6 weeks, 3/group/sex) were randomly allocated to three treatment groups and given the same dosage as those in the repeated toxicity experiment for 28 days. […] Carbamazepine was chosen as the internal standard (IS). The blood samples were centrifuged to obtain plasma. Then, 300 μL of acetonitrile containing 40 ng of IS was added to 100 μL of plasma. After vortexing for 1 min, the mixture was centrifuged at 17,000 rpm for 15 min at 4 °C. The supernatant of each sample was injected into a UPLC–MS/MS system for determination. The injection volume was 1 μL. UPLC–MS analysis was performed on a Thermo Fisher Scientific Ultimate 3000 UPLC system (San Jose, USA) and an API 4000 QTRAP mass spectrometer (Foster City, USA) equipped with an ESI source. The mobile phase consisted of 2 solvents: (A) water containing 0.1% formic acid and (B) 100% acetonitrile. For MS, multiple reaction monitoring (MRM) in positive ion mode was used as the scanning mode for the main components and IS in the plasma samples. The dwell time (DT), collision energy (CE), quadrupole 1 pre-rod bias (Q1) and quadrupole 3 pre-rod bias (Q3) are listed in Table 3.

[1] = female, female rats, Day 1, highest dose (berberine 72.08, epiberberine 7.42, coptisine 7.42, palmatine 18.26, jatrorrhizine 2.80, columbamine 5.93 mg/kg)
[2] = female, female rats, Day 1, lowest dose (berberine 8.01, epiberberine 0.82, coptisine 1.38, palmatine 2.03, jatrorrhizine 0.31, columbamine 0.66 mg/kg)
[3] = female, female rats, Day 1, middle dose (berberine 24.03, epiberberine 2.47, coptisine 2.47, palmatine 6.09, jatrorrhizine 0.93, columbamine 1.98 mg/kg)
[4] = female, female rats, Day 28, highest dose (berberine 72.08, epiberberine 7.42, coptisine 7.42, palmatine 18.26, jatrorrhizine 2.80, columbamine 5.93 mg/kg)
[5] = female, female rats, Day 28, lowest dose (berberine 8.01, epiberberine 0.82, coptisine 1.38, palmatine 2.03, jatrorrhizine 0.31, columbamine 0.66 mg/kg)
[6] = female, female rats, Day 28, middle dose (berberine 24.03, epiberberine 2.47, coptisine 2.47, palmatine 6.09, jatrorrhizine 0.93, columbamine 1.98 mg/kg)
[7] = male, male rats, Day 1, highest dose (berberine 72.08, epiberberine 7.42, coptisine 7.42, palmatine 18.26, jatrorrhizine 2.80, columbamine 5.93 mg/kg)
[8] = male, male rats, Day 1, lowest dose (berberine 8.01, epiberberine 0.82, coptisine 1.38, palmatine 2.03, jatrorrhizine 0.31, columbamine 0.66 mg/kg)
[9] = male, male rats, Day 1, middle dose (berberine 24.03, epiberberine 2.47, coptisine 2.47, palmatine 6.09, jatrorrhizine 0.93, columbamine 1.98 mg/kg)
[10] = male, male rats, Day 28, highest dose (berberine 72.08, epiberberine 7.42, coptisine 7.42, palmatine 18.26, jatrorrhizine 2.80, columbamine 5.93 mg/kg)
[11] = male, male rats, Day 28, lowest dose (berberine 8.01, epiberberine 0.82, coptisine 1.38, palmatine 2.03, jatrorrhizine 0.31, columbamine 0.66 mg/kg)
[12] = male, male rats, Day 28, middle dose (berberine 24.03, epiberberine 2.47, coptisine 2.47, palmatine 6.09, jatrorrhizine 0.93, columbamine 1.98 mg/kg)

`COc1cc2c(cc1O)-c1cc3ccc(OC)c(OC)c3c[n+]1CC2` [columbamine] gave an AUC(0-t) (female, 0.4 g/kg, female rats, Day 1, low dose TAZF 0.4 g/kg by gavage, read-out: AUC0-t) of 71.4 ± 80.1 ng·h/mL, a Cmax (female, 0.4 g/kg, female rats, Day 1, low dose TAZF 0.4 g/kg by gavage, read-out: Cmax) of 30 ± 20.7 ng/mL and an AUC(0-t) (female, 0.4 g/kg, female rats, Day 28, low dose TAZF 0.4 g/kg by gavage, read-out: AUC0-t) of 68.1 ± 76.9 ng·h/mL. For the same compound, the Cmax (female, 0.4 g/kg, female rats, Day 28, low dose TAZF 0.4 g/kg by gavage, read-out: Cmax) was 30.3 ± 40 ng/mL, the AUC(0-t) (female, 3.7 g/kg, female rats, Day 1, high dose TAZF 3.7 g/kg by gavage, read-out: AUC0-t) was 41.1 ± 10 ng·h/mL and the Cmax (female, 3.7 g/kg, female rats, Day 1, high dose TAZF 3.7 g/kg by gavage, read-out: Cmax) was 37.7 ± 30.4 ng/mL. The AUC(0-t) (female, 3.7 g/kg, female rats, Day 28, high dose TAZF 3.7 g/kg by gavage, read-out: AUC0-t) was 12.2 ± 4.52 ng·h/mL, the Cmax (female, 3.7 g/kg, female rats, Day 28, high dose TAZF 3.7 g/kg by gavage, read-out: Cmax) was 2.98 ± 0.24 ng/mL and the Tmax [1] was 0.5 h. It also gave an AUC(0-t) (female, female rats, Day 1, highest dose (berberine 72.08, epiberberine 7.42, coptisine 7.42, palmatine 18.26, jatrorrhizine 2.80, columbamine 5.93 mg/kg), read-out: AUC0-t mean) of 41.1 ng·h/mL, a Cmax (female, female rats, Day 1, highest dose (berberine 72.08, epiberberine 7.42, coptisine 7.42, palmatine 18.26, jatrorrhizine 2.80, columbamine 5.93 mg/kg), read-out: Cmax mean) of 37.7 ng/mL and a half-life [1] of 8.24 h. For the same compound, the Tmax [2] was 2.33 h, the AUC(0-t) (female, female rats, Day 1, lowest dose (berberine 8.01, epiberberine 0.82, coptisine 1.38, palmatine 2.03, jatrorrhizine 0.31, columbamine 0.66 mg/kg), read-out: AUC0-t mean) was 71.4 ng·h/mL and the Cmax (female, female rats, Day 1, lowest dose (berberine 8.01, epiberberine 0.82, coptisine 1.38, palmatine 2.03, jatrorrhizine 0.31, columbamine 0.66 mg/kg), read-out: Cmax mean) was 30 ng/mL. It also gave a half-life [2] of 4.31 h, a Tmax [3] of 0.83 h and an AUC(0-t) (female, female rats, Day 1, middle dose (berberine 24.03, epiberberine 2.47, coptisine 2.47, palmatine 6.09, jatrorrhizine 0.93, columbamine 1.98 mg/kg), read-out: AUC0-t mean) of 59.2 ng·h/mL. It also gave a Cmax (female, female rats, Day 1, middle dose (berberine 24.03, epiberberine 2.47, coptisine 2.47, palmatine 6.09, jatrorrhizine 0.93, columbamine 1.98 mg/kg), read-out: Cmax mean) of 39.6 ng/mL, a half-life [3] of 7.78 h and a Tmax [4] of 1.17 h. It also gave an AUC(0-t) (female, female rats, Day 28, highest dose (berberine 72.08, epiberberine 7.42, coptisine 7.42, palmatine 18.26, jatrorrhizine 2.80, columbamine 5.93 mg/kg), read-out: AUC0-t mean) of 12.2 ng·h/mL, a Cmax (female, female rats, Day 28, highest dose (berberine 72.08, epiberberine 7.42, coptisine 7.42, palmatine 18.26, jatrorrhizine 2.80, columbamine 5.93 mg/kg), read-out: Cmax mean) of 2.98 ng/mL and a half-life [4] of 12.4 h. For the same compound, the Tmax [5] was 0.42 h, the AUC(0-t) (female, female rats, Day 28, lowest dose (berberine 8.01, epiberberine 0.82, coptisine 1.38, palmatine 2.03, jatrorrhizine 0.31, columbamine 0.66 mg/kg), read-out: AUC0-t mean) was 68.1 ng·h/mL and the Cmax (female, female rats, Day 28, lowest dose (berberine 8.01, epiberberine 0.82, coptisine 1.38, palmatine 2.03, jatrorrhizine 0.31, columbamine 0.66 mg/kg), read-out: Cmax mean) was 30.3 ng/mL. The half-life [5] was 10.9 h, the Tmax [6] was 1.5 h and the AUC(0-t) (female, female rats, Day 28, middle dose (berberine 24.03, epiberberine 2.47, coptisine 2.47, palmatine 6.09, jatrorrhizine 0.93, columbamine 1.98 mg/kg), read-out: AUC0-t mean) was 9.42 ng·h/mL. For the same compound, the Cmax (female, female rats, Day 28, middle dose (berberine 24.03, epiberberine 2.47, coptisine 2.47, palmatine 6.09, jatrorrhizine 0.93, columbamine 1.98 mg/kg), read-out: Cmax mean) was 1.35 ng/mL, the half-life [6] was 10.7 h and the AUC(0-t) (male, 0.4 g/kg, male rats, Day 1, low dose TAZF 0.4 g/kg by gavage, read-out: AUC0-t) was 153 ± 54.9 ng·h/mL. For the same compound, the Cmax (male, 0.4 g/kg, male rats, Day 1, low dose TAZF 0.4 g/kg by gavage, read-out: Cmax) was 32.1 ± 28.7 ng/mL, the AUC(0-t) (male, 0.4 g/kg, male rats, Day 28, low dose TAZF 0.4 g/kg by gavage, read-out: AUC0-t) was 31.1 ± 2.21 ng·h/mL and the Cmax (male, 0.4 g/kg, male rats, Day 28, low dose TAZF 0.4 g/kg by gavage, read-out: Cmax) was 44.2 ± 42.3 ng/mL. The AUC(0-t) (male, 3.7 g/kg, male rats, Day 1, high dose TAZF 3.7 g/kg by gavage, read-out: AUC0-t) was 276 ± 92 ng·h/mL, the Cmax (male, 3.7 g/kg, male rats, Day 1, high dose TAZF 3.7 g/kg by gavage, read-out: Cmax) was 46.5 ± 30.3 ng/mL and the AUC(0-t) (male, 3.7 g/kg, male rats, Day 28, high dose TAZF 3.7 g/kg by gavage, read-out: AUC0-t) was 65.1 ± 6.74 ng·h/mL. The Cmax (male, 3.7 g/kg, male rats, Day 28, high dose TAZF 3.7 g/kg by gavage, read-out: Cmax) was 16.4 ± 11.8 ng/mL, the Tmax [7] was 4 h and the AUC(0-t) (male, male rats, Day 1, highest dose (berberine 72.08, epiberberine 7.42, coptisine 7.42, palmatine 18.26, jatrorrhizine 2.80, columbamine 5.93 mg/kg), read-out: AUC0-t mean) was 276 ng·h/mL. For the same compound, the Cmax (male, male rats, Day 1, highest dose (berberine 72.08, epiberberine 7.42, coptisine 7.42, palmatine 18.26, jatrorrhizine 2.80, columbamine 5.93 mg/kg), read-out: Cmax mean) was 46.5 ng/mL, the half-life [7] was 10.9 h and the Tmax [8] was 10 h. It also gave an AUC(0-t) (male, male rats, Day 1, lowest dose (berberine 8.01, epiberberine 0.82, coptisine 1.38, palmatine 2.03, jatrorrhizine 0.31, columbamine 0.66 mg/kg), read-out: AUC0-t mean) of 153 ng·h/mL, a Cmax (male, male rats, Day 1, lowest dose (berberine 8.01, epiberberine 0.82, coptisine 1.38, palmatine 2.03, jatrorrhizine 0.31, columbamine 0.66 mg/kg), read-out: Cmax mean) of 32.1 ng/mL and a half-life [8] of 47.8 h. For the same compound, the Tmax [9] was 1.83 h, the AUC(0-t) (male, male rats, Day 1, middle dose (berberine 24.03, epiberberine 2.47, coptisine 2.47, palmatine 6.09, jatrorrhizine 0.93, columbamine 1.98 mg/kg), read-out: AUC0-t mean) was 207 ng·h/mL and the Cmax (male, male rats, Day 1, middle dose (berberine 24.03, epiberberine 2.47, coptisine 2.47, palmatine 6.09, jatrorrhizine 0.93, columbamine 1.98 mg/kg), read-out: Cmax mean) was 41.7 ng/mL. It also gave a half-life [9] of 59.9 h, a Tmax [10] of 4.08 h and an AUC(0-t) (male, male rats, Day 28, highest dose (berberine 72.08, epiberberine 7.42, coptisine 7.42, palmatine 18.26, jatrorrhizine 2.80, columbamine 5.93 mg/kg), read-out: AUC0-t mean) of 65.1 ng·h/mL. The Cmax (male, male rats, Day 28, highest dose (berberine 72.08, epiberberine 7.42, coptisine 7.42, palmatine 18.26, jatrorrhizine 2.80, columbamine 5.93 mg/kg), read-out: Cmax mean) was 16.4 ng/mL, the half-life [10] was 11.2 h and the Tmax [11] was 0.83 h. For the same compound, the AUC(0-t) (male, male rats, Day 28, lowest dose (berberine 8.01, epiberberine 0.82, coptisine 1.38, palmatine 2.03, jatrorrhizine 0.31, columbamine 0.66 mg/kg), read-out: AUC0-t mean) was 31.1 ng·h/mL, the Cmax (male, male rats, Day 28, lowest dose (berberine 8.01, epiberberine 0.82, coptisine 1.38, palmatine 2.03, jatrorrhizine 0.31, columbamine 0.66 mg/kg), read-out: Cmax mean) was 44.2 ng/mL and the half-life [11] was 7.52 h. For the same compound, the Tmax [12] was 12 h, the AUC(0-t) (male, male rats, Day 28, middle dose (berberine 24.03, epiberberine 2.47, coptisine 2.47, palmatine 6.09, jatrorrhizine 0.93, columbamine 1.98 mg/kg), read-out: AUC0-t mean) was 90.6 ng·h/mL and the Cmax (male, male rats, Day 28, middle dose (berberine 24.03, epiberberine 2.47, coptisine 2.47, palmatine 6.09, jatrorrhizine 0.93, columbamine 1.98 mg/kg), read-out: Cmax mean) was 21.4 ng/mL. For the same compound, the half-life [12] was 4.07 h and the “Systemic exposure after 28 days of administration vs single administration” value (rats, oral TAZF) was “much lower”.
